Columns and labels:
[1] = tested on: drug resistant (Pgp+) DLD-1 human colon tumour; assay: Efficacy in nude athymic mice implanted with multidrug resistant, Pgp positive DLD-1 tumour xenografts; details: mouse, in vivo
Procedure: Animals, nude athymic mice, 4 mice/group (10 in Control group) implanted subcutaneously with human DLD-1 colon tumour via trocar implant.
All agents were administered to nude athymic mice i.v. via tail vein on day 5 and 12 after s.c. tumour implant with the multidrug resistant, Pgp positive, human colon tumour xenograft.

[2] = tested on: Dogs; assay: Subacute toxicity in dogs; details: dog, in vivo
Source text: • clinical signs of toxicity, • body weight, • haemodynamic parameters, • haematology and • biochemical parameters TABLE 7

[3] = Pharmacokinetic study of doxorubicin formulations in mice (plasma, HPLC); set-up: species or system Swiss albino mice; details: mouse, in vivo, 10 mg/kg
Procedure: Blood samples after collection were centrifuged at 4000 rpm for 20 min and the plasma was separated and frozen at -20°C until analysed. The frozen plasma was thawed and used for analysis.
1ml of acetonitrile was added to 100 µL of plasma, vortexed for 10 min, centrifuged at 3250 rpm for 10 min. The supernatant was withdrawn and 0.5ml of saturated ZnSO4 solution was added to it. The resulting solution was vortexed for 5 min and then centrifuged for 10 min at 3250 rpm. The upper organic layer was then withdrawn and dried under oxygen free nitrogen gas at 60°C. The residue obtained was then reconstituted with 200µL of Solvent A containing ZnSO4. 100 µL of this solution was then injected in the HPLC column.
Student's t-test was used for comparison between the three formulations.

## Adriamycin^®
[1]
  MTD relative to that of the liposomal formulations: about half
[2]
  Liver Function Test: aspartate aminotranferase, alanine aminotranferase and total bilirubin levels: Increase
  creatinine phosphokinase and lactate dehydrogenase levels: Increase
[2]; 1 mg/kg
  Body weight: decrease in the bodyweight
  Haemodynamic Parameters: Heart rate: Increases by average + 29.17%
  Haemodynamic Parameters: Respiratory rate: Decreases by average -42.12%
[3]
  Cl: 200.96 mL/h
  Kel: 4.852

Source: patent publication EP1435231B1, “Non-pegylated long-circulating liposomes” (Bharat Serums & Vaccines Ltd., priority 2002, dated 2004)
